Experimental data taken from PubChem BioAssay AID1259407 (Chemical Carcinogenesis Research Information System (CCRIS), 2018).
Activity calls are given as the source filed them. How the calls were made is not given here.

Tested on: CCRIS mutagenicity, Ames/micronucleus/aberration tests
Experiment: CCRIS mutagenicity studies
[1] = Test System: AMES SALMONELLA TYPHIMURIUM, Strain/Indicator: TA98, Metabolic Activation: HAMSTER, LIVER, S-9, AROCLOR 1254 (30%), Method: PREINCUBATION
[2] = Test System: AMES SALMONELLA TYPHIMURIUM, Strain/Indicator: TA98, Metabolic Activation: NONE, Method: PREINCUBATION
[3] = Test System: AMES SALMONELLA TYPHIMURIUM, Strain/Indicator: TA98, Metabolic Activation: NONE, Method: STANDARD PLATE
[4] = Test System: AMES SALMONELLA TYPHIMURIUM, Strain/Indicator: TA98, Metabolic Activation: RAT, LIVER, S-9, AROCLOR 1254 (30%), Method: PREINCUBATION
[5] = Test System: AMES SALMONELLA TYPHIMURIUM, Strain/Indicator: TA100, Metabolic Activation: HAMSTER, LIVER, S-9, AROCLOR 1254 (30%), Method: PREINCUBATION
[6] = Test System: AMES SALMONELLA TYPHIMURIUM, Strain/Indicator: TA100, Metabolic Activation: NONE, Method: PREINCUBATION
[7] = Test System: AMES SALMONELLA TYPHIMURIUM, Strain/Indicator: TA100, Metabolic Activation: NONE, Method: STANDARD PLATE
[8] = Test System: AMES SALMONELLA TYPHIMURIUM, Strain/Indicator: TA100, Metabolic Activation: RAT, LIVER, S-9, AROCLOR 1254 (30%), Method: PREINCUBATION
[9] = Test System: AMES SALMONELLA TYPHIMURIUM, Strain/Indicator: TA1535, Metabolic Activation: NONE, Method: PREINCUBATION
[10] = Test System: AMES SALMONELLA TYPHIMURIUM, Strain/Indicator: TA1537, Metabolic Activation: NONE, Method: PREINCUBATION

With `c1ccc(Nc2ccc(Nc3ccccc3)cc2)cc1` the mutagenic call (End Point: IN VITRO CHROMOSOMAL ABERRATIONS, Test System: CHINESE HAMSTER LUNG CELLS (CHL), Metabolic Activation: RAT, LIVER, S-9, KC-400) was “inactive; negative”, the mutagenic call (End Point: IN VITRO CHROMOSOMAL ABERRATIONS, Test System: CHINESE HAMSTER OVARY CELLS (CHO), Metabolic Activation: NONE) was “inactive; negative” and the mutagenic call (End Point: IN VITRO CHROMOSOMAL ABERRATIONS, Test System: CHINESE HAMSTER OVARY CELLS (CHO), Metabolic Activation: RAT, LIVER, S-9, AROCLOR 1254) was “inactive; negative”. For the same compound, the mutagenic call (End Point: IN VITRO CHROMOSOMAL ABERRATIONS, Test System: CHL CELLS, Metabolic Activation: RAT, LIVER, S-9, SODIUM PHENOBARBITAL AND 5,6-BENZOFLAVONE) was “inactive; negative; authors report equivocal results for structural changes at 0.08 and 0”, the mutagenic call [1] was “active; positive” and the mutagenic call [2] was “inactive; negative”. The mutagenic call [3] was “inactive; negative”, the mutagenic call [4] was “active; positive” and the mutagenic call (Test System: AMES SALMONELLA TYPHIMURIUM, Strain/Indicator: TA98, Metabolic Activation: S-9, Method: STANDARD PLATE) was “inactive; negative”. For the same compound, the mutagenic call [5] was “inactive; negative”, the mutagenic call [6] was “inactive; negative” and the mutagenic call [7] was “inactive; negative”. For the same compound, the mutagenic call [8] was “inactive; negative” and the mutagenic call (Test System: AMES SALMONELLA TYPHIMURIUM, Strain/Indicator: TA100, Metabolic Activation: S-9, Method: STANDARD PLATE) was “inactive; negative”.
With `O=[N+]([O-])c1cc2cc3ccc4cccc5ccc(c2o1)c3c45` the mutagenic call (Test System: AMES SALMONELLA TYPHIMURIUM, Strain/Indicator: TA98(NR), Metabolic Activation: NONE, Method: STANDARD PLATE) was “active; positive”, the mutagenic call (Test System: AMES SALMONELLA TYPHIMURIUM, Strain/Indicator: TA98(NR), Metabolic Activation: RAT, LIVER, S-9, AROCLOR 1254, Method: STANDARD PLATE) was “active; positive” and the mutagenic call [3] was “active; positive”. For the same compound, the mutagenic call (Test System: AMES SALMONELLA TYPHIMURIUM, Strain/Indicator: TA98, Metabolic Activation: RAT, LIVER, S-9, AROCLOR 1254, Method: STANDARD PLATE) was “active; positive”.
`O=CC1=CCCC2CC12C=O` (stereo unspecified) was tested, and the mutagenic call [3] was “active; positive” and the mutagenic call [7] was “active; positive”.
For `C1COC1`, the mutagenic call (Test System: AMES SALMONELLA TYPHIMURIUM, Strain/Indicator: TA97, Metabolic Activation: HAMSTER, LIVER, S-9, AROCLOR 1254 (30%), Method: PREINCUBATION) was “inactive; negative”, the mutagenic call (Test System: AMES SALMONELLA TYPHIMURIUM, Strain/Indicator: TA97, Metabolic Activation: NONE, Method: PREINCUBATION) was “inactive; negative” and the mutagenic call (Test System: AMES SALMONELLA TYPHIMURIUM, Strain/Indicator: TA97, Metabolic Activation: RAT, LIVER, S-9, AROCLOR 1254 (30%), Method: PREINCUBATION) was “inactive; negative”. The mutagenic call [1] was “inactive; negative”, the mutagenic call [2] was “inactive; negative” and the mutagenic call [4] was “inactive; negative”. For the same compound, the mutagenic call [5] was “inactive; negative”, the mutagenic call [6] was “inactive; negative” and the mutagenic call [8] was “inactive; negative”. For the same compound, the mutagenic call (Test System: AMES SALMONELLA TYPHIMURIUM, Strain/Indicator: TA1535, Metabolic Activation: HAMSTER, LIVER, S-9, AROCLOR 1254 (10 OR 30%), Method: PREINCUBATION) was “active; positive”, the mutagenic call [9] was “inactive; negative” and the mutagenic call (Test System: AMES SALMONELLA TYPHIMURIUM, Strain/Indicator: TA1535, Metabolic Activation: RAT, LIVER, S-9, AROCLOR 1254 (10 OR 30%), Method: PREINCUBATION) was “active; positive”. For the same compound, the mutagenic call (Test System: AMES SALMONELLA TYPHIMURIUM, Strain/Indicator: TA1537, Metabolic Activation: HAMSTER, LIVER, S-9, AROCLOR 1254 (30%), Method: PREINCUBATION) was “inactive; negative”, the mutagenic call [10] was “inactive; negative” and the mutagenic call (Test System: AMES SALMONELLA TYPHIMURIUM, Strain/Indicator: TA1537, Metabolic Activation: RAT, LIVER, S-9, AROCLOR 1254 (30%), Method: PREINCUBATION) was “inactive; negative”.
`Cc1ccc(S(=O)(=O)Oc2ccc(N=Nc3ccc(-c4ccc(N=Nc5c(O)ccc6cc(S(=O)(=O)O)cc(S(=O)(=O)O)c56)c(C)c4)cc3C)cc2)cc1` was tested, and the mutagenic call (Test System: AMES SALMONELLA TYPHIMURIUM, Strain/Indicator: TA98, Metabolic Activation: HAMSTER, LIVER, S-9, AROCLOR 1254 (10%), Method: PREINCUBATION) was “active; positive”, the mutagenic call (Test System: AMES SALMONELLA TYPHIMURIUM, Strain/Indicator: TA98, Metabolic Activation: HAMSTER, LIVER, S-9, Method: PREINCUBATION (PRIVAL METHOD)) was “active; positive” and the mutagenic call [2] was “inactive; negative”. For the same compound, the mutagenic call (Test System: AMES SALMONELLA TYPHIMURIUM, Strain/Indicator: TA98, Metabolic Activation: RAT, LIVER, S-9, AROCLOR 1254 (10%), Method: PREINCUBATION) was “inactive; negative”, the mutagenic call (Test System: AMES SALMONELLA TYPHIMURIUM, Strain/Indicator: TA100, Metabolic Activation: HAMSTER, LIVER, S-9, AROCLOR 1254 (10%), Method: PREINCUBATION) was “inactive; negative” and the mutagenic call [6] was “inactive; negative”. The mutagenic call (Test System: AMES SALMONELLA TYPHIMURIUM, Strain/Indicator: TA100, Metabolic Activation: RAT, LIVER, S-9, AROCLOR 1254 (10%), Method: PREINCUBATION) was “inactive; negative”, the mutagenic call (Test System: AMES SALMONELLA TYPHIMURIUM, Strain/Indicator: TA1535, Metabolic Activation: HAMSTER, LIVER, S-9, AROCLOR 1254 (10%), Method: PREINCUBATION) was “inactive; negative” and the mutagenic call [9] was “inactive; negative”. The mutagenic call (Test System: AMES SALMONELLA TYPHIMURIUM, Strain/Indicator: TA1535, Metabolic Activation: RAT, LIVER, S-9, AROCLOR 1254 (10%), Method: PREINCUBATION) was “inactive; negative”, the mutagenic call (Test System: AMES SALMONELLA TYPHIMURIUM, Strain/Indicator: TA1537, Metabolic Activation: HAMSTER, LIVER, S-9, AROCLOR 1254 (10%), Method: PREINCUBATION) was “inactive; negative” and the mutagenic call [10] was “inactive; negative”. The mutagenic call (Test System: AMES SALMONELLA TYPHIMURIUM, Strain/Indicator: TA1537, Metabolic Activation: RAT, LIVER, S-9, AROCLOR 1254 (10%), Method: PREINCUBATION) was “inactive; negative” and the mutagenic call (Test System: AMES SALMONELLA TYPHIMURIUM, Strain/Indicator: TA1538, Metabolic Activation: RAT, LIVER, S-9, AROCLOR 1254, Method: STANDARD PLATE) was “active; positive”.
For `CN(C)Nc1ccn([C@@H]2O[C@H](CO)[C@@H](O)[C@H]2O)c(=O)n1`, the mutagenic call (Test System: CHINESE HAMSTER V-79, Strain/Indicator: V-79/6-THIOGUANINE, Metabolic Activation: NONE, Method: REPLATING) was “inactive; negative”.
In the case of `Nc1[nH]c(=O)nc2c1ncn2[C@@H]1O[C@H](CO)[C@@H](O)[C@H]1O`, the mutagenic call [6] is reported as “inactive; negative”.
